In patent US9211310B2, “Use of a Chinese medicine composition in preparing medicaments for treating secondary prevention of myocardial infarction” (TASLY PHARMACEUTICAL GROUP CO., LTD, priority 2010, dated 2015):

Test system: patients after acute myocardial infarction
Experiment: Angina pectoris score, total and single (frequency/attack times, duration, pain degree, dose of nitroglycerin), same clinical trial
Assay type: in vivo, human
Set-up: total angina pectoris score, Md / total angina pectoris score, Mean: scale not given here
Details: for change of attack times score, patients (%): Follow-up baseline
From the text: In order to better understand the present invention, a multi-center, randomized, double-blind, double-dummy and positive drug controlled trial had been conducted. 3508 patients who were in accordance with the diagnostic standards of AMI for 28 days to 2 years and differentiated as Qi deficiency and blood stagnation syndrome by TCM were studied. 0.5 g Chinese medicine composition prepared by the method of EXAMPLE 1 (Coded as QSYQ) was administrated half an hour after meal, 3 times per day. Aspirine was used as a positive drug. The patients were treated for 1 year and observed for 6 months.
They included the overall survival time, angina pectoris score, TCM symptom score and life quality score, where angina pectoris score, TCM symptom score and life quality score were evaluated at randomization, in 1st, 3rd, 6th, 9th, 12th month after treatment and 18th month after follow-up.
Total angina pectoris score was described on every observation period and the change of observation in comparison with baseline. T-test or Wilcoxon rank sum test were used for inter-group comparison. Grade of total score was evaluated on every observation and Wilcoxon rank sum test was used for inter-group comparison. T-test and Pairing signed rank sum test were used for analyzing the change of total score on every observation between groups in comparison with the baseline.
Single angina pectoris score was depicted on every observation time-point and the change of observation in comparison with baseline. Wilcoxon rank sum test was used for inter-group comparison. Pairing signed rank sum test was used for analyzing the change of total score on every observation between groups in comparison with the baseline.
Total angina pectoris score was described on every observation period and the change of observation in comparison with the baseline. T-test or Wilcoxon rank sum test were used for inter-group comparison. Grade of total score was evaluated on every observation and Wilcoxon rank sum test was used for inter-group comparison. T-test and Pairing signed rank sum test were used for analyzing the change of total score on every observation between groups in comparison with the baseline.
Single angina pectoris score was described on every observation time-point and the change of observation in comparison with baseline. Wilcoxon rank sum test was used for inter-group comparison. Pairing signed rank sum test was used for analyzing the change of total score on every observation between groups in comparison with the baseline.

[1] = FAS, 12 months after treatment-baseline
[2] = PP, 1 month after treatment-baseline
[3] = PP, 3 months after treatment-baseline

CC(=O)Oc1ccccc1C(=O)O [Control group, aspirine]
change of total angina pectoris score, Md [1]: −2.00 | change of total angina pectoris score, Mean [1]: −3.28 | patients with change of dose of nitroglycerin score 0 (%) [1]: (65.55%) | patients with change of dose of nitroglycerin score 1 (%) [1]: (0.52%) | patients with change of dose of nitroglycerin score 2 (%) [1]: (3.97%) | patients with change of dose of nitroglycerin score 4 (%) [1]: (0.40%) | patients with change of dose of nitroglycerin score 6 (%) [1]: (0.35%) | patients with change of dose of nitroglycerin score −1 (%) [1]: (0.52%) | patients with change of dose of nitroglycerin score −2 (%) [1]: (21.77%) | patients with change of dose of nitroglycerin score −3 (%) [1]: (0.06%) | patients with change of dose of nitroglycerin score −4 (%) [1]: (4.95%) | patients with change of dose of nitroglycerin score −5 (%) [1]: (0.06%) | patients with change of dose of nitroglycerin score −6 (%) [1]: (1.84%) | distribution of total angina pectoris score: Medium, number of patients (FAS, Baseline): 608 | distribution of total angina pectoris score: Medium, percentage of patients (FAS, Baseline): (34.90%) | distribution of total angina pectoris score: Mild, number of patients (FAS, Baseline): 1086 | distribution of total angina pectoris score: Mild, percentage of patients (FAS, Baseline): (62.34%) | distribution of total angina pectoris score: Severe, number of patients (FAS, Baseline): 48 | distribution of total angina pectoris score: Severe, percentage of patients (FAS, Baseline): (2.76%) | total angina pectoris score, Md (FAS, Baseline): 8.00 | total angina pectoris score, Mean (FAS, Baseline): 7.12 | distribution of total angina pectoris score: Medium, number of patients (FAS, Follow-up): 199 | distribution of total angina pectoris score: Medium, percentage of patients (FAS, Follow-up): (13.79%) | distribution of total angina pectoris score: Mild, number of patients (FAS, Follow-up): 1243 | distribution of total angina pectoris score: Mild, percentage of patients (FAS, Follow-up): (86.14%) | distribution of total angina pectoris score: Severe, number of patients (FAS, Follow-up): 1 | distribution of total angina pectoris score: Severe, percentage of patients (FAS, Follow-up): (0.07%) | patients with dose of nitroglycerin score 0 (%) (FAS, Follow-up): (74.24%) | patients with dose of nitroglycerin score 1 (%) (FAS, Follow-up): (0.90%) | patients with dose of nitroglycerin score 2 (%) (FAS, Follow-up): (23.19%) | patients with dose of nitroglycerin score 4 (%) (FAS, Follow-up): (1.04%) | patients with dose of nitroglycerin score 6 (%) (FAS, Follow-up): (0.63%) | total angina pectoris score, Md (FAS, Follow-up): 0.00 | total angina pectoris score, Mean (FAS, Follow-up): 3.59 | change of total angina pectoris score, Md (FAS, Follow-up-baseline): −2.00 | change of total angina pectoris score, Mean (FAS, Follow-up-baseline): −3.49 | patients with change of dose of nitroglycerin score 0 (%) (FAS, Follow-up-baseline): (64.39%) | patients with change of dose of nitroglycerin score 1 (%) (FAS, Follow-up-baseline): (0.28%) | patients with change of dose of nitroglycerin score 2 (%) (FAS, Follow-up-baseline): (4.04%) | patients with change of dose of nitroglycerin score 4 (%) (FAS, Follow-up-baseline): (0.28%) | patients with change of dose of nitroglycerin score 6 (%) (FAS, Follow-up-baseline): (0.21%) | patients with change of dose of nitroglycerin score −1 (%) (FAS, Follow-up-baseline): (0.42%) | patients with change of dose of nitroglycerin score −2 (%) (FAS, Follow-up-baseline): (21.81%) | patients with change of dose of nitroglycerin score −3 (%) (FAS, Follow-up-baseline): (0.14%) | patients with change of dose of nitroglycerin score −4 (%) (FAS, Follow-up-baseline): (6.41%) | patients with change of dose of nitroglycerin score −5 (%) (FAS, Follow-up-baseline): (0.14%) | patients with change of dose of nitroglycerin score −6 (%) (FAS, Follow-up-baseline): (1.88%) | change of attack times score, patients (%) (change 0, FAS): (44.70%) | change of attack times score, patients (%) (change 0, PP): (44.46%) | change of attack times score, patients (%) (change 1, FAS): (1.94%) | change of attack times score, patients (%) (change 1, PP): (1.99%) | change of attack times score, patients (%) (change 2, FAS): (1.73%) | change of attack times score, patients (%) (change 2, PP): (1.70%) | change of attack times score, patients (%) (change 4, FAS): (0.14%) | change of attack times score, patients (%) (change 4, PP): (0.14%) | change of attack times score, patients (%) (change −1, FAS): (22.52%) | change of attack times score, patients (%) (change −1, PP): (22.44%) | change of attack times score, patients (%) (change −2, FAS): (22.73%) | change of attack times score, patients (%) (change −2, PP): (22.87%) | change of attack times score, patients (%) (change −3, FAS): (2.01%) | change of attack times score, patients (%) (change −3, PP): (2.06%) | change of attack times score, patients (%) (change −4, FAS): (3.60%) | change of attack times score, patients (%) (change −4, PP): (3.69%) | change of attack times score, patients (%) (change −5, FAS): (0.21%) | change of attack times score, patients (%) (change −5, PP): (0.21%) | change of attack times score, patients (%) (change −6, FAS): (0.42%) | change of attack times score, patients (%) (change −6, PP): (0.43%) | attack times score, patients (%) (Follow-up, score 0, FAS): (53.64%) | attack times score, patients (%) (Follow-up, score 0, PP): (53.48%) | attack times score, patients (%) (Follow-up, score 1, FAS): (22.80%) | attack times score, patients (%) (Follow-up, score 1, PP): (22.87%) | attack times score, patients (%) (Follow-up, score 2, FAS): (22.94%) | attack times score, patients (%) (Follow-up, score 2, PP): (23.01%) | attack times score, patients (%) (Follow-up, score 4, FAS): (0.62%) | attack times score, patients (%) (Follow-up, score 4, PP): (0.64%) | distribution of total angina pectoris score: Medium, number of patients (PP, 1 month after treatment): 434 | distribution of total angina pectoris score: Medium, percentage of patients (PP, 1 month after treatment): (29.21%) | distribution of total angina pectoris score: Mild, number of patients (PP, 1 month after treatment): 1030 | distribution of total angina pectoris score: Mild, percentage of patients (PP, 1 month after treatment): (69.31%) | distribution of total angina pectoris score: Severe, number of patients (PP, 1 month after treatment): 22 | distribution of total angina pectoris score: Severe, percentage of patients (PP, 1 month after treatment): (1.48%) | patients with dose of nitroglycerin score 0 (%) (PP, 1 month after treatment): (59.61%) | patients with dose of nitroglycerin score 1 (%) (PP, 1 month after treatment): (0.27%) | patients with dose of nitroglycerin score 2 (%) (PP, 1 month after treatment): (29.40%) | patients with dose of nitroglycerin score 4 (%) (PP, 1 month after treatment): (7.48%) | patients with dose of nitroglycerin score 6 (%) (PP, 1 month after treatment): (3.24%) | total angina pectoris score, Md (PP, 1 month after treatment): 6.00 | total angina pectoris score, Mean (PP, 1 month after treatment): 5.95 | change of total angina pectoris score, Md [2]: 0.00 | change of total angina pectoris score, Mean [2]: −1.22 | patients with change of dose of nitroglycerin score 0 (%) [2]: (80.36%) | patients with change of dose of nitroglycerin score 1 (%) [2]: (0.20%) | patients with change of dose of nitroglycerin score 2 (%) [2]: (3.78%) | patients with change of dose of nitroglycerin score 4 (%) [2]: (1.01%) | patients with change of dose of nitroglycerin score 6 (%) [2]: (0.27%) | patients with change of dose of nitroglycerin score −2 (%) [2]: (11.54%) | patients with change of dose of nitroglycerin score −4 (%) [2]: (2.29%) | patients with change of dose of nitroglycerin score −6 (%) [2]: (0.54%) | distribution of total angina pectoris score: Medium, number of patients (PP, 3 months after treatment): 363 | distribution of total angina pectoris score: Medium, percentage of patients (PP, 3 months after treatment): (24.64%) | distribution of total angina pectoris score: Mild, number of patients (PP, 3 months after treatment): 1098 | distribution of total angina pectoris score: Mild, percentage of patients (PP, 3 months after treatment): (74.54%) | distribution of total angina pectoris score: Severe, number of patients (PP, 3 months after treatment): 12 | distribution of total angina pectoris score: Severe, percentage of patients (PP, 3 months after treatment): (0.81%) | patients with dose of nitroglycerin score 0 (%) (PP, 3 months after treatment): (62.95%) | patients with dose of nitroglycerin score 1 (%) (PP, 3 months after treatment): (0.75%) | patients with dose of nitroglycerin score 2 (%) (PP, 3 months after treatment): (29.10%) | patients with dose of nitroglycerin score 4 (%) (PP, 3 months after treatment): (4.96%) | patients with dose of nitroglycerin score 6 (%) (PP, 3 months after treatment): (2.24%) | total angina pectoris score, Md (PP, 3 months after treatment): 6.00 | total angina pectoris score, Mean (PP, 3 months after treatment): 5.32 | change of total angina pectoris score, Md [3]: 0.00 | change of total angina pectoris score, Mean [3]: −1.85 | patients with change of dose of nitroglycerin score 0 (%) [3]: (5.05%) | patients with change of dose of nitroglycerin score 1 (%) [3]: (0.20%) | patients with change of dose of nitroglycerin score 2 (%) [3]: (3.75%) | patients with change of dose of nitroglycerin score 4 (%) [3]: (0.55%) | patients with change of dose of nitroglycerin score 6 (%) [3]: (0.34%) | patients with change of dose of nitroglycerin score −1 (%) [3]: (0.34%) | patients with change of dose of nitroglycerin score −2 (%) [3]: (15.81%) | patients with change of dose of nitroglycerin score −4 (%) [3]: (3.14%) | patients with change of dose of nitroglycerin score −5 (%) [3]: (0.14%)
